T/C data for 22 molecules are collected here from PubChem BioAssay AID248 (DTP/NCI, 2004).

The test system of this assay is L1210 leukemia ip in BDF1 mice, survival T/C. In words: NCI In Vivo Anticancer Drug Screen. Data for tumor model L1210 Leukemia (intraperitoneal) in B6D2F1 (BDF1) mice. The note with it: endpoint: mean survival time, higher = longer survival. An outline of the steps:
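Antitumor effect is assessed in tumor-bearing animals. Survival in the compound arm is compared with a vehicle-dosed control arm and expressed as their quotient.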

Where [1] appears, read: dose: 50.0 mg/kg/injection, schedule: Q01DX009 (ip), vehicle: saline with Tween-80.
The mark [2] stands for this setting: dose: 100.0 mg/kg/injection, schedule: Q01DX009 (ip), vehicle: saline with Tween-80.
[3] abbreviates: dose: 100.0 mg/kg/injection, schedule: Q04DX003 (ip), vehicle: saline with Tween-80.
Setting [4] is: dose: 200.0 mg/kg/injection, schedule: Q04DX003 (ip), vehicle: saline with Tween-80.
Where [5] appears, read: dose: 100.0 mg/kg/injection, schedule: Q01DX001 (ip), vehicle: saline.
[6] abbreviates: dose: 200.0 mg/kg/injection, schedule: Q01DX001 (ip), vehicle: saline.
[7] abbreviates: dose: 100.0 mg/kg/injection, schedule: Q04DX003 (ip), vehicle: Klucel (hydroxypropylcellulose) (HPC).
The mark [8] stands for this setting: dose: 200.0 mg/kg/injection, schedule: Q04DX003 (ip), vehicle: Klucel (hydroxypropylcellulose) (HPC).
[9] abbreviates: dose: 400.0 mg/kg/injection, schedule: Q04DX003 (ip), vehicle: Klucel (hydroxypropylcellulose) (HPC).
Where [10] appears, read: dose: 100.0 mg/kg/injection, schedule: Q01DX001 (ip), vehicle: carboxymethylcellulose (CMC).
The mark [11] stands for this setting: dose: 200.0 mg/kg/injection, schedule: Q01DX001 (ip), vehicle: carboxymethylcellulose (CMC).
[12] abbreviates: dose: 400.0 mg/kg/injection, schedule: Q01DX001 (ip), vehicle: carboxymethylcellulose (CMC).
[13] abbreviates: dose: 100.0 mg/kg/injection, schedule: Q01DX009 (ip), vehicle: Klucel (hydroxypropylcellulose) (HPC).
[14] abbreviates: dose: 200.0 mg/kg/injection, schedule: Q01DX009 (ip), vehicle: Klucel (hydroxypropylcellulose) (HPC).
The mark [15] stands for this setting: dose: 100.0 mg/kg/injection, schedule: Q01DX009 (ip), vehicle: saline.
Setting [16] is: dose: 100.0 mg/kg/injection, schedule: Q04DX003 (ip), vehicle: saline.
[17] abbreviates: dose: 400.0 mg/kg/injection, schedule: Q01DX001 (ip), vehicle: saline.
Where [18] appears, read: dose: 400.0 mg/kg/injection, schedule: Q04DX003 (ip), vehicle: saline with Tween-80.

Values joined by “and” are separate entries in the source; they are usually repeats but may differ in a detail not shown here. Equal values may be shown once. Toxic doses and inconclusive results are not listed.

For `O=c1[nH]c(Nc2ccccc2)c(-c2ccccc2)c(=O)[nH]1`, the T/C reads like this: (dose: 47.5 mg/kg/injection, schedule: Q01DX001 (ip), vehicle: gum acacia) 98 % of control; (dose: 95.0 mg/kg/injection, schedule: Q01DX001 (ip), vehicle: gum acacia) 88 % of control; (dose: 190.0 mg/kg/injection, schedule: Q01DX001 (ip), vehicle: gum acacia) 114 % of control.

On to `CC(CCC(=O)O)C1CCC2C3CCC4CC(OC=O)CCC4(C)C3CC(OC=O)C12C` (stereo not given), for which the T/C runs as follows: under setting [1], 101 % of control; under setting [2], 92 % of control; under setting [3], 96 % of control; (dose: 200.0 mg/kg/injection, schedule: Q01DX009 (ip), vehicle: saline with Tween-80) 105 % of control.

For the molecule `Nc1cc(Cl)[nH]c(=O)n1`, the T/C (dose: 100.0 mg/kg/injection, schedule: Q01DX009 (ip), vehicle: gum acacia) was 100 % of control and the T/C (dose: 200.0 mg/kg/injection, schedule: Q01DX009 (ip), vehicle: gum acacia) is 89 % of control.

In the case of `Cn1c(=O)c2[nH]c(CC3=CCCCC3)nc2n(C)c1=O`, the T/C by setting is: (dose: 50.0 mg/kg/injection, schedule: Q01DX001 (ip), vehicle: other) 97 % of control; (dose: 100.0 mg/kg/injection, schedule: Q01DX001 (ip), vehicle: other) 92 % of control; (dose: 200.0 mg/kg/injection, schedule: Q01DX001 (ip), vehicle: other) 95 % of control; (dose: 400.0 mg/kg/injection, schedule: Q01DX001 (ip), vehicle: other) 90 % of control.

In the case of `C[n+]1ccn(Cc2ccc([N+](=O)[O-])cc2)c1`, the T/C is, setting by setting: under setting [3], 171 % of control; under setting [4], 90 % of control.

As to `NC(CSS(=O)(=O)O)=NC1CCCCC1`, the T/C is 120 % of control (dose: 6.25 mg/kg/injection, schedule: Q04DX002 (ip), vehicle: saline with Tween-80); 113 % of control (dose: 12.5 mg/kg/injection, schedule: Q04DX002 (ip), vehicle: saline with Tween-80); 98 % of control (dose: 25.0 mg/kg/injection, schedule: Q04DX002 (ip), vehicle: saline with Tween-80).

For the molecule `Cc1cc(C(=O)O)c(C)c2c1sc1ccccc12`, the T/C is, setting by setting: under setting [5], 87 % of control; under setting [6], 107 % of control.

Turning to `ClC1=C(Cl)C2(Cl)C3C4C=CC(C4)C3N1C2(Cl)Cl` (stereo not given), the T/C is, setting by setting: (dose: 50.0 mg/kg/injection, schedule: Q01DX001 (ip), vehicle: saline with Tween-80) 98 % of control; (dose: 100.0 mg/kg/injection, schedule: Q01DX001 (ip), vehicle: saline with Tween-80) 95 % of control.

Turning to `Cc1c(O)c([N+](=O)[O-])cc2c1OCOC2`, the T/C was 96 % of control under setting [7], 102 % of control under setting [8] and 93 % of control under setting [9].

In the case of `Cc1ccc(S(=O)(=O)N=S(C)C)cc1`, the T/C was 104 % of control (dose: 50.0 mg/kg/injection, schedule: Q01DX001 (ip), vehicle: carboxymethylcellulose (CMC)); 104 % of control under setting [10]; 98 % of control under setting [11]; 93 % of control under setting [12]; 105 % of control (dose: 800.0 mg/kg/injection, schedule: Q01DX001 (ip), vehicle: carboxymethylcellulose (CMC)); 103 % of control (dose: 1200.0 mg/kg/injection, schedule: Q01DX001 (ip), vehicle: carboxymethylcellulose (CMC)). Further, the T/C (dose: 1600.0 mg/kg/injection, schedule: Q01DX001 (ip), vehicle: carboxymethylcellulose (CMC)) was 109 % of control.

Take `CCCCCCCCCCCCCCCCCC(=O)NN=C1CCCC1`: the T/C reads like this: under setting [13], 95 % of control; under setting [14], 93 % of control; (dose: 400.0 mg/kg/injection, schedule: Q01DX009 (ip), vehicle: Klucel (hydroxypropylcellulose) (HPC)) 107 % of control.

As for `CCO/N=C(/N)N=C(N)N`, the T/C was 92 % of control under setting [5]; 106 % of control under setting [15]; 95 % of control under setting [16]; 97 % of control under setting [6]; 107 % of control (dose: 200.0 mg/kg/injection, schedule: Q01DX009 (ip), vehicle: saline); 91 % of control (dose: 200.0 mg/kg/injection, schedule: Q04DX003 (ip), vehicle: saline). Further, the T/C is 92 % of control under setting [17]; 97 % of control (dose: 400.0 mg/kg/injection, schedule: Q01DX009 (ip), vehicle: saline); 91 % of control (dose: 400.0 mg/kg/injection, schedule: Q04DX003 (ip), vehicle: saline).

In the case of `CN(C)NP(=O)(Nc1ccccc1)Nc1ccccc1`, the T/C reads like this: (dose: 100.0 mg/kg/injection, schedule: Q01DX009 (ip), vehicle: carboxymethylcellulose (CMC)) 103 % of control; (dose: 200.0 mg/kg/injection, schedule: Q01DX009 (ip), vehicle: carboxymethylcellulose (CMC)) 93 % of control; (dose: 400.0 mg/kg/injection, schedule: Q01DX009 (ip), vehicle: carboxymethylcellulose (CMC)) 98 % of control.

In the case of `CCCSCC`, the T/C is 93 % of control under setting [3], 91 % of control under setting [4] and 101 % of control under setting [18].

For the molecule `c1ccc(CSC(Cc2ccccc2)(SCc2ccccc2)c2ccccc2)cc1`, the T/C is 102 % of control (dose: 50.0 mg/kg/injection, schedule: Q01DX001 (ip), vehicle: saline); 104 % of control under setting [5]; 98 % of control under setting [6]; 104 % of control under setting [17].

With `CSc1ccc(OC(=O)Nc2cc(C)ccc2C)cc1`, the T/C reads like this: under setting [13], 97 % of control; under setting [7], 109 % of control; under setting [14], 107 % of control; under setting [8], 107 % of control; under setting [9], 107 % of control.

In the case of `CNC(=O)Oc1c(C)occc1=O`, the T/C is, setting by setting: (dose: 75.0 mg/kg/injection, schedule: Q01DX009 (ip), vehicle: other) 100 % of control; (dose: 75.0 mg/kg/injection, schedule: Q01DX009 (ip), vehicle: saline with Tween-80) 103 % of control; under setting [5], 106 % of control; (dose: 135.0 mg/kg/injection, schedule: Q01DX009 (ip), vehicle: other) 111 % of control; (dose: 150.0 mg/kg/injection, schedule: Q01DX009 (ip), vehicle: other) 104 % of control; (dose: 150.0 mg/kg/injection, schedule: Q01DX009 (ip), vehicle: saline with Tween-80) 111 % of control. Also, the T/C under setting [6] was 101 % of control; the T/C (dose: 200.0 mg/kg/injection, schedule: Q01DX009 (ip), vehicle: other) is 108 % of control; the T/C (dose: 300.0 mg/kg/injection, schedule: Q01DX009 (ip), vehicle: other) was 116 % of control; the T/C (dose: 300.0 mg/kg/injection, schedule: Q01DX009 (ip), vehicle: saline with Tween-80) was 106 % of control; the T/C under setting [17] is 105 % of control.

Turning to `O=C(O)c1cc(=O)cc(C(=O)O)o1`, under setting [3], the T/C is 95 % of control.

Consider `O=C(Nc1ccc(Cl)c(Cl)c1)O/N=C/c1ccccn1`, for which the T/C is 96 % of control under setting [1]; 91 % of control and 92 % of control under setting [2]; 95 % of control under setting [3]; 90 % of control under setting [4]; 91 % of control (dose: 400.0 mg/kg/injection, schedule: Q01DX009 (ip), vehicle: saline with Tween-80); 91 % of control under setting [18].

In the case of `CCCCCCCCCCCCCCCc1cc(=O)n(C)n1C`, the T/C runs as follows: under setting [3], 93 % of control; under setting [4], 94 % of control.

For the molecule `CC(=O)OCCCC[N+](=O)[O-]`, the T/C is 98 % of control under setting [10], 98 % of control under setting [11] and 98 % of control under setting [12].

Consider `CN(C)CCCn1c2ccccc2c2cnccc21`, for which the T/C was 100 % of control (dose: 50.0 mg/kg/injection, schedule: Q01DX009 (ip), vehicle: saline); 89 % of control under setting [15]; 97 % of control under setting [16].
